Laboratory results from patent publication US12448382B2, “Heterocyclic compounds for mediating tyrosine kinase 2 activity” (GUANGZHOU INNOCARE PHARMA TECH CO., LTD., priority 2019, dated 2025).

What was measured:
[1] = biological target: T1, human recombinant TYK2 protein (Homo sapiens, UniProt P29597); test: TYK2 Inhibition Assay (HTRF kinase assay); format: biochemical; conditions: human recombinant TYK2, 11.25 μM ATP substrate solution
T1 construct: purchased Carna Biosciences 08-147
T1 sequence (P29597 871-1187 limits assumed): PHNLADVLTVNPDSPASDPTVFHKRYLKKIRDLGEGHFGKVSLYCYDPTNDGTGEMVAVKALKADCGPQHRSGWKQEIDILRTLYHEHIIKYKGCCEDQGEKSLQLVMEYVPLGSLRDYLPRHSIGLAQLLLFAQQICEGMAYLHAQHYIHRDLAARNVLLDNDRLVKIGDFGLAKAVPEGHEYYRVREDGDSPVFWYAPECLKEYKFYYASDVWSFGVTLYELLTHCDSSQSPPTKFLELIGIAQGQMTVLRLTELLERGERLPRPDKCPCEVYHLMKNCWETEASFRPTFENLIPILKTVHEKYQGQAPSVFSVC
Procedure: The effect of the compounds of the present invention on the enzymatic activity of TYK2 was assessed by detecting the substrate phosphorylation level in a kinase reaction using the HTRF kinase assay detection kit (Cisbio, Cat. No. 62TK0PEC).
(§1) The experimental method is generally described below:
A reaction buffer contained the following components: an enzyme reaction buffer (1×), 5 mM MgCl2 mM DTT and 0.01% Brij35 from the kit. A TYK2 kinase solution contained human recombinant TYK2 protein (Carna Biosciences, 08-147) diluted in the reaction buffer to 0.25 ng/μL. A substrate reaction solution contained 11.25 μM ATP and 0.5 μM of a biotinylated tyrosine kinase substrate from the kit in the reaction buffer. A detection solution contained 0.1 ng/μL Eu^3+-labeled cage antibody (Cisbio, 61T66KLB) and 25 nM streptavidin-1 added XL665 (Cisbio, 610SAXLB) in the reaction buffer.
(§2) The test compound was dissolved in DMSO to 10 μM, followed by a serial 4-fold dilution with DMSO to a minimum concentration of 0.061 nM. Each concentration was further diluted 40-fold with the reaction buffer.
(§3) To a 384-well assay plate (Corning, 3674) were added 4 μL of compound solution and 2 μL of TYK2 kinase solution. The mixture was mixed and incubated at room temperature for 15 minutes, and then added with 4 μL of the substrate reaction solution. After further incubation at room temperature for 40 minutes, the reaction mixture was added with an equal volume of 10 μL detection solution and allowed to stand at room temperature for 30 minutes. An Envision plate reader (Perkin Elmer) was then used to measure the progress of the reaction at 620 nm and 665 nm. The ratio of absorbances at 665 nm and 620 nm was positively correlated with the degree of substrate phosphorylation, therefore the activity of TYK2 kinase was detected. In the experiment, the group without TYK2 kinase protein was treated as the 100% inhibition group, and the group with TYK2 kinase protein but not the test compound was treated as the 0% inhibition group. The percentage of inhibition on TYK2 kinase activity by the test, compound was calculated using the following formula: Percentage of inhibition=100−100*(ratiocompound−ratio100% inhibition)/(ratio0% inhibition−ratio100% inhibition)
The IC50 value of the test compound was calculated from 8 concentration points using the XLfit software (ID Business Solutions Ltd., UK) by the following formula: Y=Bottom+(Top−Bottom)/(1+10^((log IC50−X)slope factor))
Where Y was the percentage of inhibition, X was the logarithm of the concentration of the test compound, Bottom was the bottom plateau value of the S-shaped curve, Top was the top plateau value of the S-shaped curve, and slope factor was the slope coefficient of the curve.

[2] = biological target: T2, human recombinant JAK2 protein (Homo sapiens, UniProt O60674); test: JAK2 Inhibition Assay (HTRF kinase assay); format: biochemical; conditions: human recombinant JAK2, 2.5 μM ATP substrate solution
T2 construct: purchased Carna Biosciences 08-045
Procedure: The effect of the compounds of the present invention on the enzymatic activity of JAK2 was assessed by detecting the substrate phosphorylation level in a kinase reaction using the HTRF kinase assay detection kit (Cisbio, Cat. No. 62TK0PEC).
as §1
A reaction buffer contained the following components: an enzyme reaction buffer (1×), 5 mM MgCl2, 1 mM DTT and 0.01% Brij35 from the kit. A JAK2 kinase solution contained a human recombinant JAK2 protein (Carna Biosciences, 08-045) diluted in the reaction buffer to 0.15 ng/μL. A substrate reaction solution contained 2.5 μM ATP and 0.25 μM of a biotinylated tyrosine kinase substrate from the kit in the reaction buffer. A detection solution contained 0.1 ng/μL Eu^3+-labeled cage antibody (Cisbio, 61T66KLB) and 12.5 nM streptavidin-labeled XL665 (Cisbio, 610SAXLB) in the reaction buffer.
as §2
as §3, with “JAK2” for “TYK2”, “30” for “40”, “test” for “test,”
The IC50 value of the test compound was calculated from 8 concentration points using the XLfit softwere (ID Business Solutions Ltd., UK) by the following formula: Y=Bottom+(Top−Bottom)/(1+10^((log IC50−X)×slope factor))
Where Y was the percentage of inhibition, X was the logarithm of the concentration of the test compound. Bottom was the bottom plateau value of the S-shaped curve, Top was the top plateau value of the S-shaped curve, and slope factor was the slope coefficient of the curve.

T2 sequence (O60674 826-1132 limits assumed): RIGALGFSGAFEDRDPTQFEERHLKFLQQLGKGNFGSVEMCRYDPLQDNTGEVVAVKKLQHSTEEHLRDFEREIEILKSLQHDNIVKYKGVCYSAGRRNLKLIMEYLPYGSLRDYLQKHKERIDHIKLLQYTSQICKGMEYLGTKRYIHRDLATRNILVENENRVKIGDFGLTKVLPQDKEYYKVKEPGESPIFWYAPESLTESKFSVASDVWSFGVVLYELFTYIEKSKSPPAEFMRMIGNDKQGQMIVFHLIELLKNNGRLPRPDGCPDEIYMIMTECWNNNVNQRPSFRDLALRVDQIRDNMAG

Compound | IC50 [1] | IC50 [2]
5-chloro-4-((3aR,6aS)-3a,6a-dimethyl-5-((1-methyl-IH-pyrazol-4-yl)methyl)hexahydropyrrolo[3,4-c]pyrrol-2(1H)-yl)-N-(1-methyl-1H-pyrazol-4-yl)pyrimidin-2-amine [Compound 76] | 149 nM | 475 nM
Cn1cc(Nc2nccc(N3C[C@]4(C)CN(C(=O)C5CC5)C[C@]4(C)C3)n2)cn1 [Compound 1, cyc1opropyl((3aR,6aS)-3a,6a-dimethyl-5-(2((1-methyl-1H-pyrazol-4-yl)amino)pyrimidin-4-yl)hexahydropyrrolo[3,4-c]pyrrol-2(1H)-yl)methanone] | 125 nM | 319 nM
C[C@@]12CN(C(=O)C3CC3)C[C@]1(C)CN(c1ccnc(Nc3ccc(C(=O)O)cc3)n1)C2 [Compound 2] | 62 nM | 478 nM
CCNC(=O)c1ccc(Nc2nccc(N3C[C@]4(C)CN(C(=O)C5CC5)C[C@]4(C)C3)n2)cc1 [Compound 3] | 23 nM | 113 nM
Cn1cc(Nc2nccc(N3C[C@]4(C)CN(C(=O)C(F)(F)F)C[C@]4(C)C3)n2)cn1 [Compound 4, 1-((3aR,6aS)-3a,6a-dimethyl-5-(2((1-methyl-1H-pyrazol-4-yl)amino)pyrimidin-4-yl)hexahydropyrrolo[3,4-c]pyrrol-2(1H)-yl)-2,2,2-trifluoroethan-1-one] | 49 nM | 126 nM
Cn1cc(Nc2nccc(N3C[C@]4(C)CN(C(=O)C5CC5(F)F)C[C@]4(C)C3)n2)cn1 (stereo partly drawn) [Compound 5, (2,2-difluorocyclopropyl)((3aR,6aS)-3a,6a-dimethyl-5-(2-((1-methyl-1H-pyrazol-4-yl)amino)pyrimidine-4-yl)hexahydropyrrolo[3,4-c]pyrrole-2(1H)-yl)methanone] | 75 nM | 82 nM
CCOC(=O)N1C[C@@]2(C)CN(c3ccnc(Nc4cnn(C)c4)n3)C[C@@]2(C)C1 [Compound 6, ethyl (3aR,6aS)-3a,6a-dimethyl-5-(2-((1-methyl-1H-pyrazol-4-yl)amino)pyrimidin-4-yl)hexahydropyrrol[3,4-c]pyrrole-2(1H)-carboxylate] | 127 nM | 113 nM
Cn1cc(Nc2nccc(N3C[C@]4(C)CN(CCC#N)C[C@]4(C)C3)n2)cn1 [Compound 7, 3-((3aR,6aS)-3a,6a-dimethyl-5-(2-((1-methyl-1H-pyrazol-4-yl)amino)pyrimidin-4-yl)hexahydropyrrolo[3,4-c]pyrrol-2(1H)-yl)propanenitrile] | 186 nM | 138 nM
Cn1cc(Nc2nccc(N3C[C@]4(C)CN(C(=O)NCC#N)C[C@]4(C)C3)n2)cn1 [Compound 8, (3aR,6aS)-N-(cyanomethyl)-3a,6a-dimethyl-5-(2-((1-methyl-IH-pyrazol-4-yl)amino)pyrimidin-4-yl)hexahydropyrrolo[3,4-c]pyrrole-2(1H)-carboxamide] | 66 nM | 25 nM
CCNC(=O)c1ccc(Nc2ncc(F)c(N3C[C@H]4CN(C(=O)C5CC5(F)F)C[C@H]4C3)n2)cc1 (stereo partly drawn) [Compound 9] | 13 nM | 38 nM
Cn1cc(Nc2ncc(C#N)c(N3C[C@]4(C)CN(C(=O)C5CC5)C[C@]4(C)C3)n2)cn1 [Compound 15, 4-((3aR,6aS)-5-(cyclopropanecarbonyl)-3a,6a-dimethlhexahydropyrrolo[3,4-c]pyrrol-2(1H)-yl)-2-((1-methyl-1H-pyrazol-4-yl)amino)pyrimidine-5-carbonitrile] | 186 nM | 551 nM
Cn1cc(Nc2ncc(Cl)c(N3C[C@]4(C)CN(C(=O)C5CNC5)C[C@]4(C)C3)n2)cn1 [Compound 38, azetidin-3-yl((3aR,6aS)-5-(5-chloro-2-((1-methyl-1H-pyrazol-4-yl)amino)pyrimidin-4-yl)-3a,6a-dimethylhexahydropyrrolo[3,4-c]pyrrol-2(1H)-yl)methanone] | 43 nM | 50 nM
Cn1cc(Nc2ncc(Cl)c(N3C[C@]4(C)CN(CCO)C[C@]4(C)C3)n2)cn1 [Compound 49, 2-((3aR,6aS)-5-(5-chloro-2-((1-methyl-1H-pyrazol-4-yl)amino)pyrimidin-4-yl)-3a,6a-dimethylhexahydropyrrolo[3,4-c]pyrrol-2(1H)-yl)ethan-1-ol] | 52 nM | 71 nM
Cn1cc(Nc2ncc(Cl)c(N3C[C@]4(C)CN(Cc5ccn(C)n5)C[C@]4(C)C3)n2)cn1 [Compound 75, 5-chloro-4-((3aR,6aS)-3a,6a-dimethyl-5-((1-methyl-1H-pyrazol-3-yl)methyl)hexahydropyrrolo[3,4-c]pyrrol-2(1H)-yl)-N-(1-methyl-1H-pyrazol-4-yl)pyrimidin-2-amine] | 98 nM | 325 nM
Cn1cc(Nc2ncc(Cl)c(N3C[C@]4(C)CN(Cc5ncn(C)n5)C[C@]4(C)C3)n2)cn1 [Compound 77, 5-chloro-4-((3aR,6aS)-3a,6a-dimethyl-5-((1-methyl-1H-1,2,4-triazol-3-yl)methyl)hexahydropyrrolo[3,4-c]pyrrol-2(1H)-yl)-N-(1-methyl-1H-pyrazol-4-yl)pyrimidin-2-amine] | 30 nM | 136 nM
Cc1cc(Nc2ncc(Cl)c(N3C[C@]4(C)CN(C(=O)C5CC5)C[C@]4(C)C3)n2)no1 [Compound 93] | 158 nM | 91 nM
Cn1ccc(Nc2ncc(Cl)c(N3C[C@]4(C)CN(C(=O)C5CC5)C[C@]4(C)C3)n2)n1 [Compound 94, ((3aR,6aS)-5-(5-chloro-2-((1-methyl-1H-pyrazol-3-yl)amino)pyrimidin-4-yl)-3a,6a-dimethylhexahydropyrrolo[3,4-c]pyrrol-2(1H)-yl)(cyclopropyl)methanone] | 224 nM | 34 nM
COc1cnc(Nc2cnn(C)c2)nc1N1C[C@]2(C)CN(C(=O)CC#N)C[C@]2(C)C1 [Compound 97, 3-((3aR,6aS)-5-(5-methoxy-2-((1-methyl-1H-pyrazol-4-yl)amino)pyrimidin-4-yl)-3a,6a-dimethylhexahydropyrrolo[3,4-c]pyrrol-2(1H)-yl)-3-oxopropanenitrile] | 56 nM | 8.1 nM
